Laboratory results taken from PubChem BioAssay AID330 (DTP/NCI, 2004).
Values joined by “and” are separate entries in the source; they are usually repeats but may differ in a detail not shown here. Identical values can stand only once. Inconclusive results and toxic doses are left out. How the source made its calls: active means survival T/C of 150% or more; inactive means T/C below 125% in these data.

Test system: P388 leukemia ip, CD2F1 mice, survival T/C
Assay: NCI In Vivo Anticancer Drug Screen. Data for tumor model P388 Leukemia (intraperitoneal) in CD2F1 (CDF1) mice
Details: endpoint: median survival time, higher = longer survival
Summary of the method: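 Mice carrying the transplanted tumor received test compound or vehicle. Survival was recorded in each group, and the value is the treated-group measurement divided by that of the vehicle-treated control group.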

[1] = dose: 50.0 mg/kg/injection, schedule: Q01DX009 (ip), vehicle: saline
[2] = dose: 100.0 mg/kg/injection, schedule: Q01DX009 (ip), vehicle: saline
[3] = dose: 6.25 mg/kg/injection, schedule: Q01DX009 (ip), vehicle: saline with Tween-80
[4] = dose: 12.5 mg/kg/injection, schedule: Q01DX009 (ip), vehicle: saline with Tween-80
[5] = dose: 25.0 mg/kg/injection, schedule: Q01DX009 (ip), vehicle: saline with Tween-80
[6] = dose: 50.0 mg/kg/injection, schedule: Q01DX009 (ip), vehicle: saline with Tween-80
[7] = dose: 6.25 mg/kg/injection, schedule: Q01DX005 (ip), vehicle: Klucel (hydroxypropylcellulose) (HPC)
[8] = dose: 12.5 mg/kg/injection, schedule: Q01DX005 (ip), vehicle: Klucel (hydroxypropylcellulose) (HPC)
[9] = dose: 25.0 mg/kg/injection, schedule: Q01DX005 (ip), vehicle: Klucel (hydroxypropylcellulose) (HPC)

Measured: T/C

O=C1OCC2=C1CN1CCc3cc4c(cc3C1C2)OCO4 (stereo not drawn)
inactive: dose: 0.63 mg/kg/injection, schedule: Q01DX009 (ip), vehicle: distilled water + Tween-80 94 % of control | dose: 1.25 mg/kg/injection, schedule: Q01DX009 (ip), vehicle: distilled water + Tween-80 103 % of control | dose: 2.5 mg/kg/injection, schedule: Q01DX009 (ip), vehicle: distilled water + Tween-80 112 % of control | dose: 5.0 mg/kg/injection, schedule: Q01DX009 (ip), vehicle: distilled water + Tween-80 103 % of control | dose: 10.0 mg/kg/injection, schedule: Q01DX009 (ip), vehicle: distilled water + Tween-80 103 % of control | dose: 20.0 mg/kg/injection, schedule: Q01DX009 (ip), vehicle: distilled water + Tween-80 94 % of control

O=C1c2cccc(O)c2C(=O)c2c(OC3OC(CO)C(OC4OC(CO)C(O)C(O)C4O)C(O)C3O)cccc21 (stereo not drawn)
inactive: dose: 12.5 mg/kg/injection, schedule: Q04DX003 (ip), vehicle: saline with Tween-80 100 % of control | dose: 25.0 mg/kg/injection, schedule: Q04DX003 (ip), vehicle: saline with Tween-80 100 % of control | [1] 104 % of control | dose: 50.0 mg/kg/injection, schedule: Q04DX003 (ip), vehicle: saline with Tween-80 99 % of control | [2] 107 % of control | dose: 200.0 mg/kg/injection, schedule: Q01DX009 (ip), vehicle: saline 102 % of control

C=C1C(=O)OC2C(OC(C)=O)C(C(=O)OC)CC(O)C/C(CO)=C\C(OC(=O)/C(C)=C/C)C12 (stereo not drawn)
inactive: dose: 2.0 mg/kg/injection, schedule: Q01DX009 (ip), vehicle: Klucel (hydroxypropylcellulose) (HPC) 115 % of control | dose: 4.0 mg/kg/injection, schedule: Q01DX009 (ip), vehicle: Klucel (hydroxypropylcellulose) (HPC) 108 % of control | dose: 8.0 mg/kg/injection, schedule: Q01DX009 (ip), vehicle: Klucel (hydroxypropylcellulose) (HPC) 110 % of control | dose: 16.0 mg/kg/injection, schedule: Q01DX009 (ip), vehicle: Klucel (hydroxypropylcellulose) (HPC) 100 % of control

O=C1C2C3C=CC(C3)C2C(=O)C2(CO)OC12 (stereo not drawn)
inactive: dose: 62.5 mg/kg/injection, schedule: Q04DX002 (ip), vehicle: saline 97 % of control | dose: 125.0 mg/kg/injection, schedule: Q04DX002 (ip), vehicle: saline 95 % of control | dose: 250.0 mg/kg/injection, schedule: Q04DX002 (ip), vehicle: saline 97 % of control

COc1ccc(C2CC(=O)N(c3ncccn3)C(=O)C2)cc1
inactive: dose: 100.0 mg/kg/injection, schedule: Q04DX003 (ip), vehicle: saline 103 % of control | dose: 200.0 mg/kg/injection, schedule: Q04DX003 (ip), vehicle: saline 94 % of control | dose: 400.0 mg/kg/injection, schedule: Q04DX003 (ip), vehicle: saline 102 % of control

O=C(Cc1ccc(Cl)cc1)NCCc1ccccc1
inactive: dose: 50.0 mg/kg/injection, schedule: Q01DX005 (ip), vehicle: saline with Tween-80 102 % of control | dose: 100.0 mg/kg/injection, schedule: Q01DX005 (ip), vehicle: saline with Tween-80 102 % of control | dose: 200.0 mg/kg/injection, schedule: Q01DX005 (ip), vehicle: saline with Tween-80 99 % of control

CC[C@H]1CN2CCc3cc(OC)c(OC)cc3[C@@H]2C[C@@H]1C[C@@H]1c2cc(OC)c(OC)cc2CCN1N=O
inactive: [3] 96 % of control | [4] 99 % of control | [5] 107 % of control | [6] 100 % of control

COc1cc2c(cc1OC)C(Cc1cccs1)=NCC2
inactive: dose: 50.0 mg/kg/injection, schedule: Q01DX005 (ip), vehicle: Klucel (hydroxypropylcellulose) (HPC) 100 % of control | dose: 100.0 mg/kg/injection, schedule: Q01DX005 (ip), vehicle: Klucel (hydroxypropylcellulose) (HPC) 94 % of control

NNc1n[nH]c(=S)n1N
inactive: dose: 6.25 mg/kg/injection, schedule: Q01DX009 (ip), vehicle: Klucel (hydroxypropylcellulose) (HPC) 94 % of control | [3] 109 % of control | dose: 12.5 mg/kg/injection, schedule: Q01DX009 (ip), vehicle: Klucel (hydroxypropylcellulose) (HPC) 94 % of control | [4] 100 % of control | dose: 25.0 mg/kg/injection, schedule: Q01DX009 (ip), vehicle: Klucel (hydroxypropylcellulose) (HPC) 106 % of control | [5] 104 % of control

CC(=O)OC(CC=C(C)C)C1=CC(=O)c2c(O)ccc(O)c2C1=O (stereo not drawn)
inactive: dose: 6.25 mg/kg/injection, schedule: Q01DX005 (ip), vehicle: saline with Tween-80 109 % of control | dose: 12.5 mg/kg/injection, schedule: Q01DX005 (ip), vehicle: saline with Tween-80 109 % of control

O=C(O)/C(Cl)=C(Cl)\C=N\c1ncn[nH]1
inactive: [7] 104 % of control | [8] 100 % of control | [9] 112 % of control

C(=C\CN1CCOCC1)/Cc1cccnc1
inactive: dose: 3.12 mg/kg/injection, schedule: Q01DX009 (ip), vehicle: saline with Tween-80 99 % of control and 100 % of control | [3] 100 % of control | [4] 100 % of control and 104 % of control | [5] 100 % of control (2×) and 102 % of control | [6] 103 % of control and 109 % of control

COc1ccc(CSC(=S)Nc2ccc(Cl)c(C(F)(F)F)c2)cc1
inactive: [5] 95 % of control | dose: 25.0 mg/kg/injection, schedule: Q01DX009 (ip), vehicle: saline 104 % of control | [6] 98 % of control | [1] 109 % of control | dose: 50.0 mg/kg/injection, schedule: Q01DX009 (ip), vehicle: suspension in saline 106 % of control | dose: 100.0 mg/kg/injection, schedule: Q01DX009 (ip), vehicle: saline with Tween-80 100 % of control | [2] 104 % of control | dose: 100.0 mg/kg/injection, schedule: Q01DX009 (ip), vehicle: suspension in saline 124 % of control | dose: 200.0 mg/kg/injection, schedule: Q01DX009 (ip), vehicle: saline with Tween-80 91 % of control | dose: 200.0 mg/kg/injection, schedule: Q01DX009 (ip), vehicle: suspension in saline 124 % of control

OC1C(O)C(O)C(O)C(O)C1O.[Cu+2].[Cu] (stereo not drawn)
inactive: dose: 3.12 mg/kg/injection, schedule: Q01DX005 (ip), vehicle: Klucel (hydroxypropylcellulose) (HPC) 93 % of control | [7] 93 % of control | [8] 94 % of control | [9] 100 % of control

COC(=O)C1CC(C)C1(OC)OC (stereo not drawn)
inactive: dose: 60.0 mg/kg/injection, schedule: Q01DX005 (ip), vehicle: saline 106 % of control | dose: 120.0 mg/kg/injection, schedule: Q01DX005 (ip), vehicle: saline 107 % of control | dose: 240.0 mg/kg/injection, schedule: Q01DX005 (ip), vehicle: saline 101 % of control

COc1ccc(NC(SC)=C(C#N)C#N)cc1
inactive: dose: 25.0 mg/kg/injection, schedule: Q04DX002 (ip), vehicle: saline with Tween-80 99 % of control | dose: 50.0 mg/kg/injection, schedule: Q04DX002 (ip), vehicle: saline with Tween-80 100 % of control | dose: 100.0 mg/kg/injection, schedule: Q04DX002 (ip), vehicle: saline with Tween-80 98 % of control

O=C1NC(=O)C2(N1)C1CCCC2C(c2ccccc2)NC1c1ccccc1 (stereo not drawn)
inactive: dose: 60.0 mg/kg/injection, schedule: Q01DX005 (ip), vehicle: saline with Tween-80 96 % of control | dose: 120.0 mg/kg/injection, schedule: Q01DX005 (ip), vehicle: saline with Tween-80 91 % of control | dose: 240.0 mg/kg/injection, schedule: Q01DX005 (ip), vehicle: saline with Tween-80 90 % of control

O=C([Se][Se]C(=O)c1ccccc1)c1ccccc1
inactive: [3] 101 % of control | [4] 107 % of control | [5] 107 % of control
